Reference: patent US20240342158A1, “METHOD OF TREATING AND/OR PREVENTING TYPE 1 DIABETES WITH CEPHARANTHINE” (ALBERT EINSTEIN COLLEGE OF MEDICINE, priority 2021, published 2024)

Legend:
[1] = molecular target: recombinant APS3v-HLA-DR3 (Homo sapiens, UniProt P01903+P01911, A100K/A102G/A103R/F55Y/I96L/K41T/P40S/Q125H/Q178H/Q39Y/R42S/S66N/T106N/W38E/Y61H); test: ELISA inhibition assay of biotinylated peptide binding to recombinant APS3v-HLA-DR3
Method: An in vitro binding assay was performed. […] On the day before the immunoassay was performed, a 96-well DELFIA yellow plate (PerkinElmer Life Science) was coated overnight with 20 μg/ml of L243 antibody [Hybridoma was purchased from ATCC, catalogue number HB-55, and IgG was purified by QED Bioscience (San Diego, CA)] in bicarbonate buffer, pH 9.6 (Sigma-Aldrich). L243 is a monoclonal antibody that specifically recognizes the DRa chain of HLA-DR when it is properly folded and complexed with the b chain. The plate was then washed with DELFIA wash buffer (diluted 1:25 from DELFIA wash concentrate, PerkinElmer) to wash off the excess L243 antibody. Blocking was performed using 2.5% BSA in PBS at room temperature for 1 h. After washing 4 times, 100 μl of the pre-incubated mix (containing recombinant APS3v-HLA-DR3 protein, APO, and small molecules) were added onto the plate and shaken at slow speed for 2 h at room temperature. After washing 4 times, DELFIA Europium-labeled streptavidin (PerkinElmer) diluted in DELFIA assay buffer (PerkinElmer) was added for 30 min and shaken at slow speed at room temperature. After washing for 6 times, DELFIA Enhancement Solution was added for 1 h until the optimal signal was reached. Time-resolved fluorescence was measured using the BMG reader (BMG Labtech, Cary, NC). A virtual screen identified 100 small molecules that were predicted to block the unique APS3v-HLA-DR3 pocket. To produce a manageable selection of compounds for validation we clustered the 100 compounds by their simplified molecular input line entry system (SMILES) similarity into 20 clusters. Of the 20 clusters we selected the top scoring members in each cluster. We have enhanced this list to include a total of 11 compounds that blocked APS3v-HLA-DR3, the key HLA-DR3 pocket that triggers APS3v. We tested the selected 11 small molecules identified by the virtual screen in our in vitro ELISA, to test whether the 11 small molecules can block APO peptide (the strongest known peptide binder to HLA-DR3) binding to recombinant APS3v-HLA-DR3. Of the 4 validated small molecules we selected S53 for further testing because it is the only one that has been used in humans before. […] ELISA was performed as previously described.

humanized NOD-DR3 mice = test: Free T4 and anti-mouse Tg antibody levels in cepharanthine-treated immunized mice; type: in vivo; conditions: data not shown
Method: Autoantibody Measurements: Sera were collected from mice upon sacrifice and stored in −20° C. Nunc™ Maxisorp™ ELISA plate (Thermo Fisher Scientific, Waltham, MA) was coated with 10 μg/ml of either Tg.1571, GAD.492, TPO.758 or mouse Tg in bicarbonate buffer (Sigma-Aldrich) at pH 9.6 and incubated overnight. The ELISA plate was washed 4 times with PBS supplemented with 0.05% Tween (Sigma-Aldrich) [PBST]. After blocking with 2.5% BSA in PBST for 1 h at 37° C., the plate was washed with PBST for 6 times. 100 μl of the diluted sera (1:100 in 0.5% BSA/PBS) was added for 2 h with slow shaking at room temperature. After washing for 6 times with PBST, anti-mouse IgG secondary antibody (Sigma-Aldrich) was added at 1:30,000 dilution in 1% BSA/PBST and incubated for 30 min at 37° C. After washing the plate for 4 times with PBST, the freshly prepared paranitrophenylphosphate substrate (Sigma-Aldrich) was added for 1 h and the plate was read at 405 nm using the BMG reader (BMG Labtech, Cary, NC).
Free T4 Measurements: Sera were collected from mice and were assayed for free thyroxin (fT4) measurements using free thyroxine ELISA kit (Alpha Diagnostic International, San Antonio, TX, catalog no. 1110). Assay was performed according to manufacturer's protocol. […] Absorbance at 450 nm was measured using a BMG ELISA reader (BMG Labtech). […]

Sequence of recombinant APS3v-HLA-DR3 (P01911 30-227 W38E/Q39Y/P40S/K41T/R42S/F55Y/Y61H/S66N/I96L/A100K/A102G/A103R/T106N/Q125H/Q178H): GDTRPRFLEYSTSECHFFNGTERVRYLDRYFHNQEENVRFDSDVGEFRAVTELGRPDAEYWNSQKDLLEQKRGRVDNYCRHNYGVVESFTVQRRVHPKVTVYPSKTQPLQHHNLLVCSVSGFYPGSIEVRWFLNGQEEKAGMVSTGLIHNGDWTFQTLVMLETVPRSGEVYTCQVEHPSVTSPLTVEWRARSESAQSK
Sequence of recombinant APS3v-HLA-DR3 (P01903 26-216): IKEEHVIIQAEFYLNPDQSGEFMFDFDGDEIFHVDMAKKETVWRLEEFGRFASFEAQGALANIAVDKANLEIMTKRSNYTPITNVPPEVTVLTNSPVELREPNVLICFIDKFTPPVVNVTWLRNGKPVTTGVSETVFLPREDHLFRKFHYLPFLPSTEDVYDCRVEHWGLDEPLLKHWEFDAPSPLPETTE

COc1ccc2cc1Oc1ccc(cc1)C[C@H]1c3c(cc4c(c3Oc3cc5c(cc3OC)CCN(C)[C@@H]5C2)OCO4)CCN1C [S53, Cepharanthine]
inhibition of binding of the 3 peptides (TPO.758, GAD.492, Tg.1571) to the HLA-DR3 pocket ([1]; ELISA inhibition assay, final concentration 0.4 mM): significant inhibition of binding for all 3 peptides | blocking of binding of biotinylated APO, TPO.758, GAD.492 and Tg.1571 to APS3v-HLA-DR3 ([1]; decreasing doses 0.4 mM, 0.2 mM, 0.1 mM, 0.05 mM): blocked the binding of each peptide in a dose-dependent manner | antibody levels against mouse Tg (humanized NOD-DR3 mice): did not significantly affect | free T4 levels (humanized NOD-DR3 mice): did not significantly affect
